Article PMC12196476, “New Nitrogen-, Oxygen-, and Sulfur-Containing Heterocyclic Compounds as Anti-Colon Cancer Agents: Synthesis, Multitargeted Evaluations, Molecular Docking Simulations and ADMET Predictions” (Pharmaceuticals, 2025)

Tests used:
[1] = DPPH radical scavenging assay; conditions: three independent experiments; read-out: Mean IC50 (mM) for initial DPPH radicals ± SD
Method: The antioxidant activities of the studied compounds were assessed using the 1,1-diphenyl-2-picrylhydrazyl (DPPH) radical scavenging method as detailed by Bersuder et al.. The results were expressed as IC50 (mM)—the concentration of the test compound required to neutralize 50% of DPPH radicals.
The antioxidant efficiencies of target compounds were determined using the 1,1-diphenyl-2-picrylhydrazyl (DPPH) radical scavenging method as detailed by Bersuder et al.. […]
S3.2. Evaluation of Biological Activities.
S3.2.1. In vitro DPPH radical scavenging assay.
The antioxidant efficiencies of compounds—3a−e, 8, 9a−c, 13, 14, 17, 18a−h, 20, 22, 23, and 25—were
determined using the 1,1-diphenyl-2-picrylhydrazyl (DPPH) radical scavenging method as
detailed by Bersuder et al.. Fundamentally, the purple color of the stabilized DPPH radical
fades in the presence of an antioxidant, thus, the change of absorbance can be followed
spectrophotometrically at 519 nm. In the assay, equal volumes (0.5 mL) of DPPH ethanolic solution
and each compound (0-2 mg/mL in DMSO) or butylated hydroxytoluene (BHT) as the reference
were mixed well by shaking. The negative control consisted of the same amount of DMSO and
DPPH solution. After, incubation all mixtures at room temperature in the dark for one hour, the
absorbance of the residual DPPH radicals was measured at 519 nm using the UV‐vis
spectrophotometer. The DPPH radical scavenging activity of each compound (%) was calculated
Scavenging activity = (1 − Acompound/AControl) * 100, where Acompound and Acontrol the absorbance values
of each tested compound (or BHT) and the negative control, respectively. The half maximal
inhibitory concentration (IC50) for each compound in mg/mL was deduced by graphing the dose-
response curve relating the scavenging activity (%) to the compound concentration. Data points
represent the mean ± standard deviation (SD) of three independent determinations.

[2] = target: PDK-1 (Homo sapiens, UniProt Q15118); assay: In vitro PDK-1 inhibition assay (Kinase-Glo luminescent kinase kit); format: biochemical; conditions: for inhibition at 100 µg/mL: three replicates, read-out: Mean Inhibition Percent ± SD, PDK-1
Sequence of PDK-1 (Q15118 29-436): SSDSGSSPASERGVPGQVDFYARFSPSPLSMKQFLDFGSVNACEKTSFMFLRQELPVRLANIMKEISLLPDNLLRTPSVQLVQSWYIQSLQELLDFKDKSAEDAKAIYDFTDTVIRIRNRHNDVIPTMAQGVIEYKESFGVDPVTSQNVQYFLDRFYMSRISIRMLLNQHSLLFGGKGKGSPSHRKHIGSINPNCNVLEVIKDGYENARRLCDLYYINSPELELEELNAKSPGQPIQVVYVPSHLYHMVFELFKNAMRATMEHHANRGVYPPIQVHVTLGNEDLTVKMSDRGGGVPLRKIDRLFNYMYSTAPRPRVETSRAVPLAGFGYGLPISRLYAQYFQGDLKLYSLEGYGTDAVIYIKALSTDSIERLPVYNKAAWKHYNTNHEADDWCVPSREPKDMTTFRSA
Method: Principally, the PDK-1 inhibitory activities were evaluated using the non-radioactive Kinase-Glo™ Luminescent Kinase Kit (Promega Corporation, Madison, WI, USA) following the instructions of the manufacturer.
S3.2.2. In vitro PDK-1 inhibition assay.
The PDK-1 inhibitory activities of the test compounds were evaluated using the non-radioactive
Kinase-Glo™ Luminescent Kinase kit (Promega Corporation, Madison, WI, USA), following the
manufacturer’s protocol. Briefly, 5 μL of assay buffer—containing 10 × 250 mM Tris-HCl, 50 mM
MgCl2, 5 mM ethyleneglycol-bis(β-aminoethylether)-N,N,N′,N′-tetraacetic acid (EGTA), 10 mM
ethylenedi- aminetetraacetic acid (EDTA), and 10 mM dithiothreitol (DTT)—was added to each
well of a 96-well plate, along with 25 μL of distilled water. Subsequently, 5 μL of each test
compound at various concentrations (50, 100, 200 and 300 μg/mL in 1% DMSO) was added to the
respective wells, except for the two control wells, which received 5 μL of either PBS buffer or 1%
DMSO. Then, 5 μL of pyruvate dehydrogenase E1 (PDH E1) protein (10 μM) and 5 μL of ATP
(10 μM) were added to each well. To initiate phosphorylation, 5 μL of PDK-1 (20 μM) in protein
buffer (1 mM MgCl2, 2000 mM KCl, 40 mM K3PO4) was added to all the wells except the control
wells, which received 5 μL of protein buffer instead. The plate was then mixed thoroughly and
incubated at 37 °C for 30 minutes. After incubation, 50 μL of kinase-Glo® reagent was added to each
well, followed by a 10-minute incubation at room temperature with gentle shaking to stabilize the
luminescent signal. Luminescence was then measured using a microplate reader.
The IC50 value—defined as the concentration of a compound required to reduce luminescence by
50%, compared to untreated control wells—was determined for each compound from the
corresponding dose–response curve generated by plotting PDK-1 inhibition (%) versus compound
concentration. Sodium dichloroacetate (SDA, 1000 μM) was used as a reference PDK-1inhibitor. […]

[3] = target: recombinant human LDHA protein (Homo sapiens, UniProt P00338); assay: In vitro LDHA inhibitory assay (NADH consumption); format: biochemical; conditions: for inhibition at 100 µg/mL: three replicates, read-out: Mean Inhibition Percent ± SD, LDHA
Text: The LDHA inhibitory efficiencies were investigated on Spectramax M2 spectrofluorometer via measuring the amounts of the consumed NADH^40 using an NAD^+/NADH quantification kit. […]
S3.2.3. In vitro LDHA inhibitory assay.
The LDHA inhibitory activity of the test compounds was investigated using Spectramax M2
spectrofluorometer by measuring the amounts of the consumed NADH [42] employing
NAD+/NADH quantification kit. Briefly, the assay medium containing various concentrations of
each test compound (50, 100, 200 and 300 μg/mL) was incubated in assay medium composed of 20
mM of HEPES-K+ buffer (pH 7.2), 20 μM of NADH, 2 mM of pyruvate and 10 ng of purified
recombinant human LDHA protein for 10 min utes. The activity of LDHA would result in reduction
of pyruvate into lactate with concomitant oxidation of NADH to NAD +. Since NADH (reduced
LDHA, could be inversely quantified by monitoring the change in the intensity of the fluorescence
at 340 nm over a 10-minute period. The rate of the fluorescence change (slope) in treated samples
was compared to that obtained from negative control experiment (100 % enzymatic activity) to
determine the percentage of inhibition. The IC50 value—defined as the compound concentration
required to reduce the luminescence by 50%, compared to untreated control wells—was
determined for each compound from the corresponding dose–response curve generated by
plotting LDHA inhibition (%) against compound concentration.
was used as the reference LDHA inhibitor. […]

[4] = tested on: LoVo colon carcinoma cells; assay: Cell viability, LDH release assay, LoVo; conditions: for viability at 100 µg/mL / IC50: Homo sapiens, LoVo, 48 h; for viability at 100 µg/mL: read-out: Mean % of viable cells ± SD, LoVo, 100 µg/mL, 48 h, LDH release assay; for IC50: read-out: Mean IC50 Values in µM ± SD, LoVo cells
Method: (§1) The studied compounds were also screened for their cytotoxic effects on HCT-116 and LoVo colon carcinoma cells, as well as normal HUVECs, using the standard LDH assay at a concentration of 100 µg/mL.
(§2) The antiproliferative activities of the newly synthesized compounds 3a–e, 8, 9a–c, 13, 14, 17, 18a–h, 20, 22, 23 and 25 were examined on human colon HCT-116 and LoVo cell lines as well as HUVEC (American Type Culture Collection, Manassas, VA, USA). […]
(§3) S3.2.4. Cell culture and viability assay.
(§4) The cytotoxic activities of the newly synthesized compounds (3a-e, 8, 9a-c, 13, 14, 17, 18a-h, 20, 22,
(§5) 23, and 25) were examined on human colon cancer cell lines HCT-116 and Lovo (American Type
(§6) Culture Collection, USA). Various concentrations (50, 100, 200, and 400 μg/mL) of test compounds
(§7) were prepared in Dulbecco’s Modified Eagles Medium (PAN-Biotech, Barcelona, Spain),

[5] = tested on: HCT-116 colon carcinoma cells; assay: Cell viability, LDH release assay, HCT-116; conditions: for viability at 100 µg/mL / IC50: Homo sapiens, HCT-116, 48 h; for viability at 100 µg/mL: read-out: Mean % of viable cells ± SD, HCT-116, 100 µg/mL, 48 h, LDH release assay; for IC50: read-out: Mean IC50 Values in µM ± SD, HCT-116 cells
Method: as §1, §2, §3, §4, §5, §6, §7

[6] = Cell viability, LDH release assay, normal HUVECs; conditions: human, normal HUVECs, Mean % of viable cells ± SD, HUVEC
Method: as §1, §2
medium served used as negative and positive controls, respectively. Percentages of viable cells […]
were calculated based on relative optical density (OD) values (at 550 nm) for compound-treated […]
wells (final concentration of 100 μg/mL), compared to the negative control, and expressed as mean value (%) ± SD from two replicates. Graphing dose-response curves representing the compound […]
concentration versus the percentages of viable cells was also conducted to deduce the half - […]
Additionally, the safety profiles of the studied compounds were assessed against normal cells […]
(HUVECs) at final concentration of 100 μg/mL . HUVECs were grown in Dulbecco’s Modified Eagle’s Medium supplemented with 10% FBS, 2 mM glutamine (Sigma Aldrich), 100 units/mL penicillin and […] streptomycin (Life Technologies; Paisley, UK). […]

[7] = 0.1% Triton X-100 in assay medium

Row | Compound | IC50 [1] | inhibition at 100 µg/mL [2] | inhibition at 100 µg/mL [3] | viability at 100 µg/mL [4] | viability at 100 µg/mL [5] | viability at 48 h, 100 µg/mL [6] | IC50 ([2]; three independent experiments, read-out: Mean IC50 µM ± SD, PDK-1) | IC50 ([3]; three independent experiments, read-out: Mean IC50 µM ± SD, LDHA) | IC50 [4] | IC50 [5] | inhibition at 1000 µM ([3]; SO at 1000 µM (111.03 µg/mL), read-out: Mean Inhibition Percent, LDHA (reference inhibitor)) | Mean % of viable cells, LoVo (positive control) [4, 7] | Mean % of viable cells, HCT-116 (positive control) [5, 7]
1 | Cc1cc(C(C)(C)C)c(O)c(C(C)(C)C)c1 [BHT, butylated hydroxytoluene, reference compound] | 0.245 ± 0.027 mM |  |  |  |  |  |  |  |  |  |  |  | 
2 | CCOC(=O)c1c(/N=C/c2cc(Br)c(O)c(OC)c2)sc2c1CCC(c1ccccc1)C2 (stereo not drawn) [Compound 3a, (E)-Ethyl2-((3-bromo-4-hydroxy-5-methoxybenzylidene)amino)-6-phenyl-4,5,6,7-tetrahydrobenzo[b]thiophene-3-carboxylate] | 0.214 ± 0.027 mM | 25.1 ± 3.04% | 25.8 ± 2.48% | 57.7 ± 1.53% | 60.7 ± 3.06% | 85 ± 1.73% |  |  |  |  |  |  | 
3 | COc1cc(OC)c(/C=N/c2sc3c(c2C#N)CCCC3)c(OC)c1 [Compound 3b, (E)-2-((2,4,6-Trimethoxybenzylidene)amino)-4,5,6,7-tetrahydrobenzo[b]thiophene-3-carbonitrile] | 0.522 ± 0.025 mM | 94.7 ± 2.33% | 82.8 ± 3.18% | < 29% | < 29% | ~90% | 147 ± 5.95 µM | 167 ± 10.1 µM | 190 µM | 170 µM |  |  | 
4 | COc1cc(/C=N/c2ncnc3sc4c(c23)CCCC4)cc(Br)c1O [Compound 3c, (E)-2-Bromo-6-methoxy-4-(((5,6,7,8-tetrahydrobenzo[4,5]thieno[2,3-d]pyrimidin-4-yl)imino)methyl)phenol] | 0.476 ± 0.038 mM | 7.6 ± 0.85% | 40 ± 1.41% | 95.7 ± 1.53% | 89.3 ± 4.16% | 93 ± 2.65% |  |  |  |  |  |  | 
5 | Oc1ccc2ccccc2c1/C=N/c1ncnc2sc3c(c12)CCCC3 [Compound 3e, (E)-1-(((5,6,7,8-Tetrahydrobenzo[4,5]thieno[2,3-d]pyrimidin-4-yl)imino)methyl) naphthalene-2-ol] | 0.89 ± 0.039 mM | 31.2 ± 3.18% | 28.3 ± 1.84% | 62.3 ± 2.52% | 57 ± 1.73% | 96.7 ± 1.16% |  |  |  |  |  |  | 
6 | O=c1[nH]cc(F)c(=O)[nH]1 [Compound 5-FU, 5-Fluorouracil, reference compound] |  |  |  |  |  |  |  |  | 20 ± 3.21 µM | 27 ± 1.87 µM |  |  | 
7 | CCOC(=O)c1sc(N2C(=O)CSCC2=O)nc1C [Compound 8, Ethyl 2-(3,5-Dioxothiomorpholino)-4-methylthiazole-5-carboxylate] | 1.52 ± 0.07 mM | 16.6 ± 2.19% | 23.2 ± 1.06% | 13.5 ± 0.71% | 26.5 ± 2.12% | 84.6 ± 2.54% |  |  | 320 ± 7.44 µM | 410 ± 13.5 µM |  |  | 
8 | CCOC(=O)c1sc(/N=C/c2cc(Br)c(O)c(OC)c2)nc1C [Compound 9a, Ethyl (E)-2-((3-bromo-4-hydroxy-5-methoxybenzylidene)amino)-4-methyl thiazole-5-carboxylate] | 1.55 ± 0.035 mM | 26.9 ± 2.62% | 40.5 ± 2.19% | 65.3 ± 3.54% | 72 ± 2.65% | 70.3 ± 1.53% |  |  |  |  |  |  | 
9 | NC(=O)C(=O)O [SO, sodium oxamate, reference compound] |  |  |  |  |  |  |  |  |  |  | 100% |  | 
10 | Triton X-100 [reference compound] |  |  |  |  |  |  |  |  |  |  |  | 0% | 0%
